Test results as given in US20250052744A1, “Dyes and Uses Thereof” (The University of Liverpool, priority 2021, published 2025).

Assays:
Staphylococcus epidermis = test: Qualitative dye staining on agarose pads (EVOS M7000); format: cell-based; set-up: key to Relative fluorescent intensity: Very high: If the cells looked twice as big in the fluorescent channel, it was marked as having “very high” relative fluorescent intensity; High: if the cells looked bigger in the fluorescent channel, it was marked as having “high” relative fluorescent intensity; Medium: If the cells looked almost the same size in the fluorescent channel and the bright field, it was marked as having “medium” relative fluorescent intensity; Low: If the cells looked smaller in the fluorescent channel as compared to the brightfield but still the whole cell was visible, it was marked as having “low” relative fluorescent intensity; Negligible: If only a few traces of a cell was visible in the fluorescent channel, it was marked as having “negligible” relative fluorescent intensity; conditions: DiSC3(5) 3 μM, SYBR Green I 10×, SYTO 13 3 μM, FM4-64 15 μM
Procedure: (§1) An overnight culture was prepared by inoculating a bacterial colony in approximately 5 ml of Urine and incubating the culture in an orbital shaker at 37° C.
(§2) The following media and materials were utilised: Cation-adjusted Mueller Hinton broth (MHB); Phosphate Buffered Saline (PBS); Membrane staining dye—FM4-64 (1.5 mM); Live cell staining dye—DiSC3(5) (1 mM); DNA staining dye—SYBR Green (1000×); DNA staining dye—SYTO 13 (0.5 mM); Ultrapure Agarose; Parafilm; Glass slides and coverslips; Scalpel; and EVOS M7000 fluorescent microscope.
(§3) A pre-cut parafilm or a coverslip was used as a guide and 22 mm×22 mm squares cut from parafilm. A square was cut out of the centre of the parafilm (approximately 10 mm×10 mm). The centre of the cut-out was discarded. Two parafilm gaskets were placed onto a cleaned glass slide. The glass slide was then placed on a dry bath set to 56° C. so that the parafilm adhered to the glass slide. The glass slide was then kept on the dry bath. Using a microwave, ultrapure agarose was dissolved in PBS at a concentration of 1.2%. The agarose solution was kept on a dry bath set at 56° C. 60 μl of the agarose solution was pipetted in the centre of the parafilm gaskets. A coverslip was then placed over the gaskets without applying pressure on the coverslip. The slide was then placed on a cool surface and left to solidify for 1-2 minutes. The coverslips were then gently lifted off the agarose pads.
(§4) In a first Eppendorf, 15 μl of FM4-64 and 6 μl of SYTO 13 was added and in a second Eppendorf 10 μl of SYBR Green and 3 μl of DiSC3(5) was added. Depending on the bacterial growth in urine, an appropriate concentration of the bacterial culture was placed in the two Eppendorfs (final bacterial concentration 10^6 CFU/ml). MHB was added so as to achieve a final volume of 1 ml. Final concentrations of the dyes in the sample was as follows: DiSC3(5): 3 μM; SYBR Green I: 10× (originally supplied as 10,000×); SYTO 13: 3 μM; and FM4-64: 15 μM
(§5) 4 μl of the contents of each Eppendorf were deposited on one agarose pad and the cells distributed across the agar surface by tilting the slide. The slide was left to dry for approximately 1 minute. A coverslip was then placed on top of the agarose pad. The slide was placed inside the microscope and incubated at 37° C. for 10 minutes. Using different light filters for each dye, an image of each pad at 40× magnification on an EVOS M7000 fluorescent microscope was captured. Eight images for each agarose pad was recorded (i.e. 8 each for brightfield and 2 fluorescent channels). For each agarose pad, 24 images were recorded. This corresponded to 48 images in total for each bacterial strain (2 agarose pads per strain). Table A below was used to take the images using the correct fluorescent channel and intensity (for imagining on any other instrument, the LED intensity will need to be normalised against the EVOS M7000).
(§6) To qualitatively calculate the relative fluorescent intensities, cell size was compared between brightfield and the fluorescent channel for a given fluorescent dye. If the cells are very fluorescent, they will appear bigger in the fluorescent channel as compared to the bright field. For our qualitative measurements, if the cells looked bigger in the fluorescent channel, it was marked as having “high” relative fluorescent intensity. If the cells looked twice as big in the fluorescent channel, it was marked as having “very high” relative fluorescent intensity. If the cells looked almost the same size in the fluorescent channel and the bright field, it was marked as having “medium” relative fluorescent intensity. If the cells looked smaller in the fluorescent channel as compared to the brightfield but still the whole cell was visible, it was marked as having “low” relative fluorescent intensity. If only a few traces of a cell was visible in the fluorescent channel, it was marked as having “negligible” relative fluorescent intensity.

[1] = tested on: Staphylococcus saprophyticus; test: as above; format: cell-based; set-up: key to Relative fluorescent intensity: Very high: If the cells looked twice as big in the fluorescent channel, it was marked as having “very high” relative fluorescent intensity; High: if the cells looked bigger in the fluorescent channel, it was marked as having “high” relative fluorescent intensity; Medium: If the cells looked almost the same size in the fluorescent channel and the bright field, it was marked as having “medium” relative fluorescent intensity; Low: If the cells looked smaller in the fluorescent channel as compared to the brightfield but still the whole cell was visible, it was marked as having “low” relative fluorescent intensity; Negligible: If only a few traces of a cell was visible in the fluorescent channel, it was marked as having “negligible” relative fluorescent intensity; conditions: DiSC3(5) 3 μM, SYBR Green I 10×, SYTO 13 3 μM, FM4-64 15 μM
Procedure: as §1, §2, §3, §4, §5, §6

[2] = Table 6 thresholds, Staphylococcus epidermis
[3] = Table 8 sample Staphylococcus epidermis (044)
[4] = Table 8 sample Staphylococcus epidermis (045)
[5] = Table 8 sample Staphylococcus epidermis (046)
[6] = Table 6 thresholds, Staphylococcus saprophyticus
[7] = Table 7 commercial strain S. saprophyticus NCTC 13634
[8] = Table 8 sample Staphylococcus saprophyticus (047)
[9] = Table 8 sample Staphylococcus saprophyticus (048)
[10] = Table 8 sample Staphylococcus saprophyticus (049)

| SMILES | Percentage of cells stained (Staphylococcus epidermis; [2]) | Relative fluorescent intensity (Staphylococcus epidermis; [2]) | Percentage of cells stained (Staphylococcus epidermis; [3]) | Relative fluorescent intensity (Staphylococcus epidermis; [3]) | Percentage of cells stained (Staphylococcus epidermis; [4]) | Relative fluorescent intensity (Staphylococcus epidermis; [4]) | Percentage of cells stained (Staphylococcus epidermis; [5]) | Relative fluorescent intensity (Staphylococcus epidermis; [5]) | Percentage of cells stained [1, 6] | Relative fluorescent intensity [1, 6] | Percentage of cells stained [1, 7] | Relative fluorescent intensity [1, 7] | Percentage of cells stained [1, 8] | Relative fluorescent intensity [1, 8] | Percentage of cells stained [1, 9] | Relative fluorescent intensity [1, 9] | Percentage of cells stained [1, 10] | Relative fluorescent intensity [1, 10] |
| --- | --- | --- | --- | --- | --- | --- | --- | --- | --- | --- | --- | --- | --- | --- | --- | --- | --- | --- |
| CCCN1C(=CC=CC=Cc2sc3ccccc3[n+]2CCC)Sc2ccccc21.[I-] [DiSC3(5), 3,3′-Dipropylthiadicarbocyanine Iodide] | Almost all | Very high | Almost all | Very high | Almost all | Very high | Almost all | Very high | Almost all | high and High | Almost all | High | Almost all | High | Almost all | High | Almost all | High |
| CCN(CC)c1ccc(C=CC=CC=Cc2cc[n+](CCC[N+](CC)(CC)CC)cc2)cc1.[Br-].[Br-] [FM 4-64, N-(3-Triethylammoniumpropyl)-4-(6-(4-(Diethylamino) Phenyl) Hexatrienyl) Pyridinium Dibromide] | Almost all | Medium | Almost all | Medium | Almost all | Medium | Almost all | Medium | Almost all | High | Almost all | High | Almost all | High | Almost all | High | Almost all | High |
| CCCN(CCCN(C)C)c1cc(/C=C2/Sc3ccccc3N2C)c2ccccc2[n+]1-c1ccccc1 [SYBR Green I, N′,N′-dimethyl-N-[4-[(E)-(3-methyl-1,3-benzothiazol-2-ylidene)methyl]-1-phenylquinolin-1-ium-2-yl]-N-propylpropane-1,3-diamine] | Almost all | High | Almost all | High | Almost all | High | Almost all | High | Almost all | High | Almost all | High | Almost all | High | Almost all | High | Almost all | High |
